# Where two headings read alike, the source gives them in different places.
# Tests used:
# Type in all cases: cell-based
# [1] = test system: Klebsiella pneumoniae, ATCC 10031; assay: MIC against Klebsiella pneumoniae ATCC 10031
# Escherichia coli, W 3630 = assay: MIC against Escherichia coli W 3630
# [2] = test system: Staphylococcus aureus, ATCC 6538 P; assay: MIC against Staphylococcus aureus ATCC 6538 P
# Shigella sonnei E 33 = assay: MIC against Shigella sonnei E 33
# Escherichia coli, NIHJ = assay: MIC against Escherichia coli NIHJ
# [3] = test system: Staphylococcus aureus, MS 27; assay: MIC against Staphylococcus aureus MS 27
# Proteus rettgeri, ACR = assay: MIC against Proteus rettgeri ACR; conditions: for MIC: Providencia rettgeri
# Proteus vulgaris, OX 19 = assay: MIC against Proteus vulgaris OX 19; conditions: for minimum inhibitory concentration (MIC): Table 3
# [4] = test system: Salmonella enteritidis gaertner; assay: MIC against Salmonella enteritidis gaertner
# Pseudomonas aeruginosa = assay: MIC against Pseudomonas aeruginosa (strain not given)
# [5] = test system: Gram-positive bacteria and Gram-negative bacteria; assay: antimicrobial / bacterium-inhibiting activity (in words)
# Enterobacter 0655 = assay: MIC against Enterobacter 0655
# [6] = test system: Pseudomonas aeruginosa, IAM 1095; assay: MIC against Pseudomonas aeruginosa IAM 1095
# Escherichia coli, RGN 14 = assay: MIC against Escherichia coli RGN 14; conditions: Table 3
# [7] = test system: Escherichia coli, RGN 238; assay: MIC against Escherichia coli RGN 238; conditions: Table 3
# [8] = Table 1, read-out: minimum inhibitory concentration (MIC)
# [9] = Table 3, read-out: minimum inhibitory concentration (MIC)
smiles,measurement,setting,value
"CC(=O)OCC1=C(C(=O)O)N2C(=O)C(NC(=O)C[S+]([O-])c3ccncc3)C2SC1 (stereo not drawn) [Example 10, 7-(4pyridylsulfinylacetamido)cephalosporanic acid]",MIC,"[1]; ATCC10031, Table 2",0.8 µg/mL
same,MIC,"Escherichia coli, W 3630; W3630, Table 2",12.5 µg/mL
same,MIC,"[2]; ATCC6538, Table 2, ATCC 6538 P, read-out: MIC",0.4 µg/mL
same,MIC,"Shigella sonnei E 33; Shigella sonnei, E33, Table 2",6.3 µg/mL
same,MIC,"Escherichia coli, NIHJ; Table 2",0.8 µg/mL
same,MIC,"[3]; MS27, Table 2, MS 27",1.6 µg/mL
same,MIC,"Proteus rettgeri, ACR; Table 2, read-out: MIC",100 µg/mL
same,MIC,"Proteus vulgaris, OX 19; OX19, Table 2",1.6 µg/mL
same,MIC,"[4]; Salmonella enterica, ENTERITIDIS, Table 2",3.2 µg/mL
"CC(=O)OCC1=C(C(=O)O)N2C(=O)C(NC(=O)C[S+]([O-])c3cccs3)C2SC1 (single isomer, unassigned) [Example 1, 7-(2-thienylsulfinylacetamido)cephalosporanic acid]",minimum inhibitory concentration (MIC),[1]; Table 1,0.8 µg/mL
same,MIC,"[2]; ATCC6538, Table 1, ATCC 6538 P, read-out: minimum inhibitory concentration (MIC)",0.8 µg/mL
same,minimum inhibitory concentration (MIC),Shigella sonnei E 33; Table 1,3.1 µg/mL
same,minimum inhibitory concentration (MIC),"Escherichia coli, NIHJ; Table 1",1.6 µg/mL
same,minimum inhibitory concentration (MIC),"[3]; Table 1, ATCC MS 27",1.6 µg/mL
same,MIC,"Proteus rettgeri, ACR; [8]",100 µg/mL
same,MIC,Pseudomonas aeruginosa; [8],100 µg/mL
same,minimum inhibitory concentration (MIC),[4]; Table 1,1.6 µg/mL
"CC1=C(C(=O)O)N2C(=O)C(NC(=O)C[S+]([O-])c3cccs3)[C@H]2SC1 (stereo partly drawn) [Example 7, 7-(2-thienylsulfinylacetamido)-3-methyl-3-cephem-4-carboxylic acid]",microbial activity,[5]; versus product from 2-thienylsulfinylacetic acid having a negative specific rotary power,much superior
"Cn1nnnc1SCC1=C(C(=O)[O-])N2C(=O)C(NC(=O)C[S+]([O-])c3cccs3)[C@H]2SC1.[Na+] (stereo partly drawn) [Example 4, sodium 7-(2-thienylsulfinylacetamido)-3-(1-methyl-1H-tetrazol-5-ylthiomethyl)-3-cephem-4-carboxylate]",bacterium-inhibiting activity,[5]; versus product derived in the same manner from 2-thienylsulfinylacetic acid having [α]D^22° of -9.2°,much superior
"CC(=O)OCC1=C(C(=O)O)N2C(=O)C(NC(=O)C[S+]([O-])c3cccs3)C2SC1 (single isomer, unassigned) [Comparative Example, 7-(2-thienylsulfinylacetamido)cephalosporanicacid, reference compound]",minimum inhibitory concentration (MIC),[1]; Table 1,6.3 µg/mL
same,minimum inhibitory concentration (MIC),"Escherichia coli, W 3630; Table 1",50 µg/mL
same,minimum inhibitory concentration (MIC),"[2]; Table 1, ATCC 6538 P",1.6 µg/mL
same,minimum inhibitory concentration (MIC),Shigella sonnei E 33; Table 1,25 µg/mL
same,minimum inhibitory concentration (MIC),"Escherichia coli, NIHJ; Table 1",6.3 µg/mL
same,minimum inhibitory concentration (MIC),"[3]; Table 1, ATCC MS 27",6.3 µg/mL
same,minimum inhibitory concentration (MIC),"Proteus rettgeri, ACR; Table 1",100 µg/mL
same,minimum inhibitory concentration (MIC),Pseudomonas aeruginosa; Table 1,100 µg/mL
same,minimum inhibitory concentration (MIC),[4]; Table 1,12.5 µg/mL
"Cc1nnc(SCC2=C(C(=O)O)N3C(=O)C(NC(=O)C[S+]([O-])c4cccs4)[C@H]3SC2)s1 (stereo partly drawn) [Example 3, 7-(2-thienylsulfinylacetamido)-3-(5-methyl-1,3,4-thiadiazol-2-ylthiomethyl)-3-cephem-4-carboxylic acid]","minimum inhibitory concentration (MIC), in words",[5]; versus product similarly derived from the compound of the Comparative Example,much superior
"CC(=O)OCC1=C(C(=O)O)N2C(=O)C(NC(=O)C[S+]([O-])c3ccccc3)C2SC1 (single isomer, unassigned) [Example 19, 7-(phenylsulfinylacetamido)cephalosporanic acid]",minimum inhibitory concentration (MIC),[1]; Table 3,1.6
same,MIC,Enterobacter 0655; [9],100 µg/mL
same,minimum inhibitory concentration (MIC),"[2]; Table 3, 6538 P",0.2
same,MIC,"[6]; IAM1095, Table 3, read-out: minimum inhibitory concentration (MIC)",100 µg/mL
same,minimum inhibitory concentration (MIC),Shigella sonnei E 33; Table 3,6.3
same,minimum inhibitory concentration (MIC),"Escherichia coli, NIHJ; Table 3",1.6
same,minimum inhibitory concentration (MIC),"[3]; Table 3, MS 27",0.8
same,minimum inhibitory concentration (MIC),"Escherichia coli, RGN 14",12.5
same,MIC,"Proteus rettgeri, ACR; [9]",100 µg/mL
same,minimum inhibitory concentration (MIC),"Proteus vulgaris, OX 19",1.6
same,minimum inhibitory concentration (MIC),[4]; Table 3,3.2
"CC(=O)OCC1=C(C(=O)O)N2C(=O)C(NC(=O)C[S+]([O-])c3ccccc3)C2SC1 (single isomer, unassigned) [comparative product, 7-(Phenylsulfinylacetamido)cephalosporanic acid, reference compound]",minimum inhibitory concentration (MIC),[1]; Table 3,50
same,minimum inhibitory concentration (MIC),Enterobacter 0655; Table 3,100
same,minimum inhibitory concentration (MIC),"Escherichia coli, W 3630; Table 3",100
same,minimum inhibitory concentration (MIC),"[2]; Table 3, 6538 P",25
same,minimum inhibitory concentration (MIC),[6]; Table 3,100
same,minimum inhibitory concentration (MIC),Shigella sonnei E 33; Table 3,100
same,minimum inhibitory concentration (MIC),"Escherichia coli, NIHJ; Table 3",100
same,minimum inhibitory concentration (MIC),"[3]; Table 3, MS 27",50
same,minimum inhibitory concentration (MIC),"Escherichia coli, RGN 14",100
same,minimum inhibitory concentration (MIC),"Proteus rettgeri, ACR; Table 3",100
same,minimum inhibitory concentration (MIC),"Proteus vulgaris, OX 19",100
same,minimum inhibitory concentration (MIC),[7],100
same,minimum inhibitory concentration (MIC),[4]; Table 3,50
"O=C(C[S+]([O-])c1cccs1)NC1C(=O)N2C(C(=O)[O-])=C(C[n+]3ccccc3)CSC12 (stereo not drawn) [Example 6, 7-(2-thienylsulfinylacetamido)-3-(1-pyridiniummethyl)-3-cephem-4-carboxylate]",antimicrobial activity,[5],excellent
